Values of other authors, collected in patent publication US7323174B1, “Modulation of immune response and methods based thereon” (Arizona Board of Regents on behalf of The University of …, priority 2000, dated 2008).
No end group written: not given here.

Legend:
[1] = test system: Th1 and Th2 cytokine production; details: individuals infected with an immunodeficiency-type retrovirus; described in U.S. Pat. No. 5,911,990
[2] = test system: immunodeficiency-type retrovirus; details: individuals infected with an immunodeficiency-type retrovirus; described in U.S. Pat. No. 5,911,990

For CKPISGHNSLFWYRQT [SEQ ID NO:1], the “aberrant Th1 and Th2 cytokine production” value [1] is given as “normalize aberrant Th1 and Th2 cytokine production” and the “progression to AIDS” value [2] is given as “suppress progression to AIDS”.
